The target of one assay is T1, DRB1*0101 (DR1) (Homo sapiens, UniProt P01903+P01911, A100R/D57E/F55L/F60I/F76Y/I96L/L162R/M171V/P40L/Q125E/R42F/V115G/Y59C).
T1 construct: used as sources of human HLA class II molecules; endogenous in cells; host or cells: LG2 (EBV-transformed homozygous B cell line)
Nature of the assay: Class II peptide-binding assay, DR1.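 Further: competition assay: unlabeled test peptides inhibit binding of a radiolabeled probe peptide to purified DR, with half-maximal inhibition taken as an approximate dissociation constant Kd.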

The target of a further assay is T2, DRB10404 (DR4w14) (Homo sapiens, UniProt P01903+P01911, A100R/A169T/F76Y/I96L/K127E/L162R/M171V/N62H/P40V/Q125Y/R42H/S133A/S149N/S66Y/V209L/W38E).
T2 construct: used as sources of human HLA class II molecules; endogenous in cells; host or cells: BIN40 (EBV-transformed homozygous B cell line)
Nature of the assay: Class II peptide-binding assay, DR4w14.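 Further: unlabeled peptides compete with a radiolabeled probe for binding to affinity-purified HLA-DR, neutral pH, class II amount titrated to bind a small fraction of label, IC50 approximates Kd.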

For a further assay, the target named is DRB1*0701 (DR7) (Homo sapiens, UniProt P01903+P01911, A100R/A102G/A103Q/D57E/D86V/E43K/F76Y/K127E/L162R/M171V/P40G/Q125H/Q99D/R33Q/R42Y/R54Q/S133A/S66F/T210M/V115G/Y107V/Y59L/Y89S). Nature of the assay: Class II peptide-binding assay, DR7.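 Further: unlabeled peptides compete with an iodinated probe peptide for binding to affinity-purified HLA-DR at neutral pH, DR amount titered to bind a small tracer fraction, IC50 approximating Kd.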
Another assay has as its target T3, DRB1*1101 (DR5w11) (Homo sapiens, UniProt P01903+P01911, A100R/A169T/A87E/I96F/K41T/L162R/M171V/P40S/Q125H/Q178H/Q39Y/Q99D/R42S/S66Y/T262R/V115G/W38E).
T3 construct: used as sources of human HLA class II molecules; endogenous in cells; host or cells: SWEIG (EBV-transformed homozygous B cell line)
The assay is described as follows: Class II peptide-binding assay, DR5w11.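 Further: competition by unlabeled test peptide against iodinated probe peptide binding to affinity-purified HLA-DR, class II amount titrated beforehand, half-maximal inhibitory concentration read as approximate Kd.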

Another assay deals with T4, DRB5*0101 (DR2w2a) (Homo sapiens, UniProt P01903+Q30154).
T4 construct: used as sources of human HLA class II molecules; endogenous in cells; host or cells: GM3107 (EBV-transformed homozygous B cell line)
The assay is described as follows: Class II peptide-binding assay, DR2w2a (DR2w2B2).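 Further: competitive binding assay: unlabeled peptide inhibiting binding of a radiolabeled probe peptide to purified DR molecules at pH 7.0, IC50 approximating Kd, lower means stronger binding.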

A further assay has as its target T5, DRB1*0301 (DR3w17) (Homo sapiens, UniProt P01903+P01911, A100K/A102G/A103R/A169T/F55Y/I96L/K41T/L162R/M171V/P40S/Q125H/Q178H/Q39Y/R42S/S66N/T106N/T262R/W38E/Y61H).
T5 construct: used as sources of human HLA class II molecules; endogenous in cells; host or cells: MAT (EBV-transformed homozygous B cell line)
Nature of the assay: Class II peptide-binding assay, DR3 (pH 4.5).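 Further: unlabeled peptide competing with a radiolabeled probe peptide for binding to affinity-purified HLA-DR3, IC50 regarded as an approximation of Kd.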

For another assay, the target named is T6, DRB1*0401 (DR4w4) (Homo sapiens, UniProt P01903+P01911, A100K/A169T/F76Y/I96L/K127E/L162R/M171V/N62H/P40V/Q125Y/R42H/S133A/S149N/S66Y/V115G/V209L/W38E).
T6 construct: used as sources of human HLA class II molecules; endogenous in cells; host or cells: PREISS (EBV-transformed homozygous B cell line)
The assay is described as follows: Class II peptide-binding assay, DR4w4.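 Further: unlabeled test peptides compete with a radiolabeled probe peptide for binding to affinity-purified HLA-DR, with DR amount titrated to capture a small fraction of label, IC50 approximating Kd.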

[1] abbreviates: read-out: DR1 nM (In IC50 Format), purified HLA DR1.
Setting [2] is: read-out: DR4w14 nM (In IC50 Format), purified HLA DR4w14.
[3] abbreviates: read-out: DR7 nM (In IC50 Format), purified HLA DR7.
The mark [4] stands for this setting: read-out: DR5w11 nM (In IC50 Format), purified HLA DR5w11.
Where [5] appears, read: read-out: DR2w2B2 nM (In IC50 Format), purified HLA DR2w2β2.
Where [6] appears, read: read-out: DR3 nM (In IC50 Format), purified HLA DR3.
Where [7] appears, read: read-out: DR4w4 nM (In IC50 Format), purified HLA DR4w4.
Setting [8] is: read-out: In IC50 Format DR1, Table VIII.
Where [9] appears, read: read-out: In IC50 Format DR4w14, Table VIII.
Setting [10] is: read-out: In IC50 Format DR7, Table VIII.
The mark [11] stands for this setting: read-out: In IC50 Format DR5w11, Table VIII.
Setting [12] is: read-out: In IC50 Format DR2w2β2, Table VIII.
The mark [13] stands for this setting: read-out: In IC50 Format DR3, Table VIII.
The mark [14] stands for this setting: read-out: In IC50 Format DR4w4, Table VIII.

Read-outs that look alike come from different tables or passages of the source. Square brackets hold non-standard residues; d marks the D form. Ends that are not written are not given here. Peptide text beside a SMILES is read from it.

T5 sequence (P01903 26-254, other chains not shown): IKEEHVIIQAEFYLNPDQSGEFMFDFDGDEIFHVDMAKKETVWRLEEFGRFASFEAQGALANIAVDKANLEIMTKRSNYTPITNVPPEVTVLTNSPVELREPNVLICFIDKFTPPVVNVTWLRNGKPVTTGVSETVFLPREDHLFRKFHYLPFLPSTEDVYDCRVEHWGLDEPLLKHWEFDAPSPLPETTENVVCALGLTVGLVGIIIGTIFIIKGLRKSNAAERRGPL
T3 sequence (P01903 26-254, other chains not shown): as above
Protocol for DRB1*0701 (DR7): Class II peptide-binding assays. […] These assays were chosen as to be representative of the most common DR alleles.
Radiolabeled peptides were iodinated using the chloramine-T method. […] In appropriate stoichiometric conditions, the IC50 of an unlabeled test peptide to the purified DR is a reasonable approximation of the affinity of interaction (Kd). Peptides were tested in two to four completely independent experiments. […] Final detergent concentration in the incubation mixture was 0.05% Nonidet P-40. Assays were performed at pH 7.0 with the exception of DR3, which was performed at pH 4.5, and DRw53, which was performed at pH 5.0.
All subsequent inhibition and direct binding assays were the performed using these class II concentrations.

With LVHSSNNFGAILSSTNVGS [Peptide 735.04], the IC50 stood at 161 nM on DRB1*0101 (DR1) (setting [1]); 12.5 nM on DRB10404 (DR4w14) (setting [2]); 961 nM on DRB1*0701 (DR7) (setting [3]); 1250 nM at DRB1*1101 (DR5w11) (setting [4]); 5000 nM on DRB5*0101 (DR2w2a) (setting [5]); 15800 nM on DRB1*0301 (DR3w17) (setting [6]). For the same molecule, at DRB1*0401 (DR4w4) (setting [7]), the IC50 amounted to 11 nM.
As to YASFVSQTAQRLFY-NH2 [Peptide 717.03], the IC50 came out at 1.9 nM on DRB1*0101 (DR1) (setting [1]); 6250 nM on DRB10404 (DR4w14) (setting [2]); 25 nM at DRB1*0701 (DR7) (setting [3]); 2500 nM on DRB1*1101 (DR5w11) (setting [4]); 8 nM at DRB5*0101 (DR2w2a) (setting [5]); 15800 nM on DRB1*0301 (DR3w17) (setting [6]). For the same molecule, the IC50 on DRB1*0401 (DR4w4) (setting [7]) was found to be 11 nM.
In the case of `CC(C)C[C@H](NC(=O)[C@@H](NC(=O)[C@H](C)NC(=O)[C@H](C)NC(=O)[C@H](CCCCN)NC(=O)[C@H](C)NC(=O)[C@H](Cc1ccccc1)NC(=O)[C@H](CCCCN)NC(=O)[C@@H](C)N)[C@@H](C)O)C(=O)N[C@@H](CCCCN)C(=O)N[C@@H](C)C(=O)N[C@@H](C)C(=O)N[C@H](C)C(N)=O` [Peptide 871.01] (H-[dA]KFAKAATLKAA[dA]-NH2), the IC50 at DRB1*0101 (DR1) (read-out: DR1 nM, Table VIII, In IC50 Format) came to 4.2 nM; on DRB10404 (DR4w14) (read-out: DR4w14 nM, Table VIII, In IC50 Format), 9.6 nM; at DRB1*0701 (DR7) (read-out: DR7 nM, Table VIII, In IC50 Format), 301 nM; on DRB1*1101 (DR5w11) (read-out: DR5w11 nM, Table VIII, In IC50 Format), 14.6 nM; at DRB5*0101 (DR2w2a) (read-out: DR2w2B2 nM, Table VIII, In IC50 Format), 14.7 nM; at DRB1*0301 (DR3w17) (read-out: DR3 nM, Table VIII, In IC50 Format), 37500 nM. Also, on DRB1*0401 (DR4w4) (read-out: DR4w4 nM, Table VIII, In IC50 Format), the IC50 was found to be 3.1 nM.
For the molecule `CC[C@H](C)[C@H](NC(=O)[C@@H](NC(=O)[C@@H](NC(=O)[C@H](CCC(=O)O)NC(=O)[C@H](CCCNC(=N)N)NC(=O)CN)[C@@H](C)O)C(C)C)C(=O)N[C@@H](CCC(=O)O)C(=O)N[C@@H](Cc1ccc(O)cc1)C(=O)N[C@@H](CC(C)C)C(=O)N[C@H](C(=O)N[C@@H](CO)C(=O)N[C@@H](Cc1ccccc1)C(=O)NCC(=O)N[C@H](C(=O)N[C@@H](Cc1c[nH]c2ccccc12)C(=O)O)C(C)C)C(C)C` [Peptide 802.04], the IC50 is 12.8 nM at DRB1*0101 (DR1) (setting [1]); 32.3 nM on DRB10404 (DR4w14) (setting [2]); 67.6 nM at DRB1*0701 (DR7) (setting [3]); 1540 nM at DRB1*1101 (DR5w11) (setting [4]); 1330 nM on DRB5*0101 (DR2w2a) (setting [5]); 16700 nM on DRB1*0301 (DR3w17) (setting [6]). Also, the IC50 on DRB1*0401 (DR4w4) (setting [7]) is 833 nM.
As to KYLEFISEAIIHVLHSR [Peptide 508.01], the IC50 at DRB1*0101 (DR1) (setting [8]) turned out to be 294 nM; at DRB10404 (DR4w14) (setting [9]) it was 2500 nM; on DRB1*0701 (DR7) (setting [10]), 338 nM; on DRB1*1101 (DR5w11) (setting [11]), 4000 nM; at DRB5*0101 (DR2w2a) (setting [12]), 20000 nM; at DRB1*0301 (DR3w17) (setting [13]) it was 25000 nM. Also, at DRB1*0401 (DR4w4) (setting [14]), the IC50 stood at 136 nM.
Take RLANSLVHSSNNFGAILSS [Peptide 735.03]: the IC50 was determined as 84.7 nM at DRB1*0101 (DR1) (setting [1]); 12.8 nM at DRB10404 (DR4w14) (setting [2]); 556 nM at DRB1*0701 (DR7) (setting [3]); 202 nM at DRB1*1101 (DR5w11) (setting [4]); 10000 nM on DRB5*0101 (DR2w2a) (setting [5]); 25000 nM at DRB1*0301 (DR3w17) (setting [6]). The IC50 at DRB1*0401 (DR4w4) (setting [7]) was determined as 11 nM.
On to NPVVHFFKNIVTPRTPPPS [Peptide 765.09], for which the IC50 was determined as 13.5 nM on DRB1*0101 (DR1) (setting [1]); 35.7 nM on DRB10404 (DR4w14) (setting [2]); 66.8 nM at DRB1*0701 (DR7) (setting [3]); 18.7 nM on DRB1*1101 (DR5w11) (setting [4]); 158 nM on DRB5*0101 (DR2w2a) (setting [5]); 50000 nM at DRB1*0301 (DR3w17) (setting [6]). Besides, the IC50 at DRB1*0401 (DR4w4) (setting [7]) amounted to 7.4 nM.
On to KIAKMEKASSVFNVVNS [Peptide 526.01], for which the IC50 is 35.7 nM at DRB1*0101 (DR1) (setting [8]); 1280 nM on DRB10404 (DR4w14) (setting [9]); more than 1250 nM at DRB1*0701 (DR7) (setting [10]); 64.5 nM at DRB1*1101 (DR5w11) (setting [11]); 3330 nM on DRB5*0101 (DR2w2a) (setting [12]); 130000 nM at DRB1*0301 (DR3w17) (setting [13]). Moreover, the IC50 on DRB1*0401 (DR4w4) (setting [14]) amounted to 187 nM.
